Results on 53 compounds are retold here after patent US20090118135A1, “METHODS AND COMPOUNDS FOR REGULATING APOPTOSIS” (The Burnham Institute, priority 2007, published 2009).

The target in the assay is T1, GST-Bfl-1 (Homo sapiens, UniProt Q16548).
T1 construct: lacking their C-terminal transmembrane domains (about the last 20 amino acids) (“ΔTM”); made in house; host or cells: XL-1 Blue E. coli, pGEX 4T-1
T1 sequence (Q16548 1-155 limits assumed): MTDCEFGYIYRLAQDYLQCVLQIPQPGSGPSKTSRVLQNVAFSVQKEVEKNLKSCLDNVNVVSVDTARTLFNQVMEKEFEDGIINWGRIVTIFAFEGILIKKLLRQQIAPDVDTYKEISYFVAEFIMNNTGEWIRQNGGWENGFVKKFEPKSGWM
In words: Bfl-1/FITC-Bid BH3 competitive fluorescence polarization assay. In kind it is binding. The note with it: primary HTS hits, MLSCN library (PubChem SIDs), Table 5B. On the procedure: A FPA was performed to determine the binding affinity of FITC-Bid BH3 peptide to Bcl-2 proteins. […] IC50 determinations were performed using GraphPad Prism software (GraphPad, Inc., San Diego, Calif.). FPA competition assays were performed using the same procedure described above, except that 100 nM of GST-Bfl-1 protein in a volume of 45 μl was incubated with 5 μl (50 μM) test compounds in DMSO per well for 30 min prior to addition of 50 μl (5 nM) FITC-Bid BH3 peptide. The final DMSO concentration was 5% when the reactions brought to fall volume of 100 μl. Fluorescence polarization was measured after 10 min. Compounds that reduced the fluorescence polarization by 50% were considered hits.
Background: Polarisation of emitted light reports the rotation of a fluorescent probe.

Regarding `Nc1nc(-c2ccco2)nn1C(=O)CCc1ccccc1` [Compound 4254649], the “% Activity” value was 63.2% and the FRatio is listed as 0.83.

As to `Cc1cc(C)nc(Nc2ccc(N3CCCC3)cc2)n1` [Compound 4256031], the “% Activity” value worked out at 108.1% and the FRatio worked out at 0.2.

Turning to `CCOc1ccc(C(=O)Nc2ccc(N3CCN(C)CC3)cc2)cc1Br` [Compound 4256635], the “% Activity” value came out at 70% and the FRatio was 0.53.

In the case of `Cc1ccc(CNc2ccc3c(c2)OCO3)cc1` [Compound 4257119], the “% Activity” value turned out to be 50.6% and the FRatio was 1.2.

As to `COc1ccc2c(c1)c(=O)oc1cc(OCC(=O)N3CCC(C)CC3)ccc12` [Compound 4257486], the “% Activity” value is listed as 104.8% and the FRatio is recorded as 0.49.

Regarding `Cc1ccc(C)n1-c1cccc(C(=O)O)c1` [Compound 4257870], the “% Activity” value is 95.8% and the FRatio came to 0.65.

Regarding `O=C(Nc1ccccc1)c1ccc2nc(-c3ccco3)c(-c3ccco3)nc2c1` [Compound 4258186], the “% Activity” value came out at 52.2% and the FRatio came out at 0.88.

As for `O=C(Nc1ccc2nc(-c3ccco3)c(-c3ccco3)nc2c1)N1CCCCCC1` [Compound 4258795], the “% Activity” value was 83.2% and the FRatio amounted to 0.96.

On to `COCc1cc(C2SCC(=O)Nc3c2c(O)nn3C(C)C)ccc1OC` (stereo not shown) [Compound 4258907], for which the “% Activity” value amounted to 67.1% and the FRatio is 1.2.

Take `CCCCCc1nnc(NC(=O)Cc2cccs2)s1` [Compound 4259217]: the “% Activity” value is listed as 69.2% and the FRatio was determined as 0.51.

Regarding `CC(=O)c1sc2nc(SCC(=O)N3CCCCC3)nc(O)c2c1C` [Compound 4259313], the “% Activity” value was determined as 57% and the FRatio is 0.82.

With `Cc1nc2ccc(C(=O)O)cc2c2c1CC(C)S2` (stereo not shown) [Compound 4259932], the “% Activity” value is given as 54.7% and the FRatio is given as 0.6.

`c1ccc(CSc2nnc(-c3ccco3)c(-c3ccco3)n2)cc1` [Compound 4260465]: the “% Activity” value is recorded as 93.8% and the FRatio is 0.72.

Take `CCOc1ccc2nc(O)c(O)nc2c1` [Compound 4261310]: the “% Activity” value is given as 69.6% and the FRatio is 1.46.

`CCCC1=C(C(=O)OCC)C(c2cc(Cl)cc(OC)c2OCC(=O)OCC)NC(=O)N1` (stereo not shown) [Compound 4262430]: the “% Activity” value was 50.9% and the FRatio is given as 1.19.

Take `COC(=O)c1cccc(NC(=O)CSc2nc(C)cc(O)n2)c1` [Compound 4262437]: the “% Activity” value turned out to be 59.9% and the FRatio was 0.64.

In the case of `Cc1ccc2cccc(S(=O)(=O)Nc3ccc4c(c3)OCO4)c2n1` [Compound 4262919], the “% Activity” value was found to be 80.6% and the FRatio is on record as 0.67.

Take `CCOC(=O)c1ccc2c(c1)C1C=CCC1C(C(=O)O)N2` (stereo not shown) [Compound 4263567]: the “% Activity” value is listed as 111.5% and the FRatio amounted to 0.4.

In the case of `c1cc2c3c(cccc3c1)NC1(CCCCCC1)N2` [Compound 4263637], the “% Activity” value was found to be 64.3% and the FRatio worked out at 0.58.

As for `COc1ccc(N2C(=O)c3cccc4cccc(c34)C2=O)nn1` [Compound 4265126], the “% Activity” value turned out to be 58.8% and the FRatio is given as 0.88.

For `COc1ccccc1-c1nnc2sc(-c3cnccn3)nn12` [Compound 4265558], the “% Activity” value is recorded as 75.3% and the FRatio came to 0.59.

Regarding `Cc1cc2c(cc1C)NC(c1c(C)n(C)n(-c3ccccc3)c1=O)C1=C(O)CC(C)(C)CC1=N2` (stereo not shown) [Compound 4265815], the “% Activity” value came out at 58.3% and the FRatio was 1.46.

As to `COc1ccc(Nc2cc(C)nc3nc(C)nn23)cc1Cl` [Compound 7967129], the “% Activity” value is reported as 82.3% and the FRatio is reported as 1.11.

Consider `CN(C)c1ccc(NC(=O)Cn2cc3c(n2)CCCC3)cc1` [Compound 7968138], for which the “% Activity” value turned out to be 57.6% and the FRatio turned out to be 0.56.

On to `COc1ccc(N2Cc3cccc(C(=O)O)c3C2=O)cc1` [Compound 7969281], for which the “% Activity” value is reported as 113.7% and the FRatio was found to be 0.86.

In the case of `O=C(NCCN1CCCCCC1)C1CCC(CNS(=O)(=O)c2cccc3cccnc23)CC1` (stereo not shown) [Compound 7969436], the “% Activity” value amounted to 51.8% and the FRatio is 0.97.

In the case of `Cc1csc2nc(CNS(=O)(=O)N(C)C)cn12` [Compound 7970333], the “% Activity” value is given as 53.8% and the FRatio worked out at 0.96.

`CCOC(=O)C1=C(C)S/C(=C\N(C)C)C1=O` [Compound 7972859]: the “% Activity” value was 68.4% and the FRatio was 0.91.

As to `Cc1cccc(OCC(=O)Nc2ccc(S(=O)(=O)N3CCCC3)cc2)c1` [Compound 7973703], the “% Activity” value was 79.2% and the FRatio is given as 0.82.

For the compound `C=CCSc1nnc2nc3c(nn12)c1cc(C)ccc1n3CC=C` [Compound 7973953], the “% Activity” value worked out at 69.4% and the FRatio worked out at 0.82.

Turning to `COc1ccc(NC(=O)c2cnn3c(C(F)(F)F)cc(-c4ccco4)nc23)cc1OC` [Compound 7974080], the “% Activity” value is reported as 52% and the FRatio is 0.9.

In the case of `Cc1ccc(O)c(/N=C/C2=C(O)c3ccccc3C2=O)c1` [Compound 7974116], the “% Activity” value came to 56% and the FRatio is reported as 0.92.

`Cc1ccc(OCC(=O)Nc2ccc(N3CCCC3)cc2)cc1C` [Compound 7974807]: the “% Activity” value came to 90.6% and the FRatio turned out to be 0.76.

Regarding `Cc1cccc(OCC(=O)Nc2ccc(N3CCCC3)cc2)c1C` [Compound 7975075], the “% Activity” value is recorded as 76.1% and the FRatio is listed as 0.72.

For `O=C1CCCC2=C1C(c1ccco1)Nc1ccc3ccccc3c12` (stereo not shown) [Compound 7975176], the “% Activity” value is on record as 52.2% and the FRatio stood at 0.73.

Consider `Brc1ccc2ncnc(Nc3ccc(N4CCOCC4)cc3)c2c1` [Compound 7975247], for which the “% Activity” value is reported as 86.8% and the FRatio is given as 0.87.

As for `Cc1ccccc1C1C(=O)c2sc3nc4c(c(=O)n3c2C1=O)CCC4` (stereo not shown) [Compound 7977096], the “% Activity” value was 50.8% and the FRatio came to 0.88.

With `CCSc1nnc(NC(=O)c2cnccn2)s1` [Compound 7977261], the “% Activity” value was determined as 58.3% and the FRatio came out at 1.19.

Regarding `O=c1oc2c3c4c(cc2s1)CCCN4CCC3` [Compound 7978324], the “% Activity” value was determined as 66.9% and the FRatio is 1.02.

For the compound `CC1=C(N2C(=O)c3ccc4c5c(ccc(c35)C2=O)CC4)C(C)N(c2ccccc2)N1C` (stereo not shown) [Compound 7978392], the “% Activity” value came to 111.5% and the FRatio amounted to 0.39.

For the compound `Cc1ccc2nc(O)c(C3C(C#N)=C(N)Oc4c3ccc3cccnc43)cc2c1` (stereo not shown) [Compound 14720783], the “% Activity” value was determined as 55% and the FRatio was 0.84.

Take `Cc1cccc2cc(C(c3nnnn3C(C)(C)C)N(Cc3ccco3)CC3CCCO3)c(O)nc12` (stereo not shown) [Compound 14720806]: the “% Activity” value amounted to 64.5% and the FRatio was 0.95.

With `Cc1cc2cc(CN(Cc3ccco3)S(=O)(=O)c3c(C)ccc4nsnc34)c(O)nc2cc1C` [Compound 14720830], the “% Activity” value is listed as 56% and the FRatio amounted to 1.29.

For `O=C(Nc1ccccc1C(=O)O)c1ccccc1` [Compound 14723278], the “% Activity” value is listed as 85.4% and the FRatio is recorded as 0.87.

With `Cn1c(=O)n(C)c2cc(S(=O)(=O)Nc3ccccc3O)ccc21` [Compound 14723355], the “% Activity” value stood at 52.9% and the FRatio came to 0.98.

As to `c1cc2c3c(cccc3c1)NC1(CCCCC1)N2` [Compound 14724643], the “% Activity” value is reported as 52.7% and the FRatio was determined as 0.82.

Consider `c1nnnn1C12CC3CC(CC(C3)C1)C2` [Compound 14725293], for which the “% Activity” value stood at 60.7% and the FRatio came out at 0.98.

On to `Nc1ccc(N2CCN(C(=O)c3cccs3)CC2)cc1` [Compound 14726238], for which the “% Activity” value worked out at 57.8% and the FRatio came out at 0.87.

For the compound `Cc1ccc(-c2nnc(S)n2/N=C/C=C/c2ccccc2[N+](=O)[O-])cc1` [Compound 14729394], the “% Activity” value turned out to be 55.5% and the FRatio amounted to 0.81.

With `Cc1ccc(C)n1-c1sccc1C(=O)O` [Compound 14729511], the “% Activity” value came out at 80% and the FRatio is on record as 0.77.

`COc1ccc2c(c1)c(=O)oc1cc(OCC(=O)NC3CCCCC3)ccc12` [Compound 14730237]: the “% Activity” value amounted to 78.9% and the FRatio is listed as 0.91.

As to `COc1ccc2c(c1)c(=O)oc1cc(OCC(=O)N3CCc4ccccc4C3)ccc12` [Compound 14730322], the “% Activity” value was determined as 59.7% and the FRatio was 0.75.

`O=C(Nc1ccc(N2CCCC2)cc1)C(c1ccccc1)c1ccccc1` [Compound 14730995]: the “% Activity” value turned out to be 64.1% and the FRatio worked out at 0.9.
